Assay results reported in patent US11298400B2, “Method of enhancing the therapeutic efficacy of fexapotide triflutate in treating LUTS” (Nymox Corporation, priority 2019, dated 2022).
Marks after values point to notes of the source that are not given here. Ends that are not written are not given here.

Tests used:
[1] = test system: Patients with BPH and who optionally also had LUTS; assay: Clinical trial: inability to provide urine volume >125 mL (Qmax unable) after intraprostatic injection; type: in vivo, human; conditions: for improvement in percentage of patients with Qmax failures: FT twice over at least one year; for % of Patients With Inability to Provide Urine Volume >125 mL: intraprostatic
Experimental: (§1) Clinical trials were conducted on numerous individuals having BPH, some of whom also had LUTS. All protocols were done in accordance with applicable regulations, and carried out by physicians.
Patients with BPH and who optionally also had LUTS were given an intraprostatic injection of either a) FT 2.5 mg in phosphate buffered saline pH 7.2 (“PBS”) or b) PBS alone, under double-blind conditions by a urologist in an office setting under ultrasound guidance. Patients were followed for >=3 months to several years with regular physical examinations, laboratory tests, and evaluations of symptoms. […] Subjects who were unable to void >=125 mL despite drinking as much water as they wanted were classified as “Qmax unable”. The numbers of subjects who became Qmax unable was compared in different groups.

[2] = test system: Patients with BPH and who optionally also had LUTS; assay: Clinical trial: urinary peak flow rate (Qmax) mean change from baseline; type: in vivo, human; conditions: for improvement in peak flow rate mean change from baseline: FT twice over at least one year; for Mean Change of Qmax from baseline: intraprostatic
Experimental: as §1
Patients were followed for >=3 months to several years with regular physical examinations, laboratory tests, and evaluations of symptoms. Urinary peak flow (Qmax) was measured by flow-meter readings using standard techniques, at 3 months and at 12 months or longer in subjects who were able to urinate adequate volume of urine (>125 mL) to provide a valid test. All peak flow measurements were assessed by a blinded central reader. The mean peak flow rate change from baseline was compared in different groups.

[3] = test system: prostate glandular epithelial cells; assay: Tissue culture genetic array, in vitro; type: cell-based; conditions: tissue culture genetic array data
Description: FT selectively causes loss of cell membrane integrity, mitochondrial metabolic arrest, depletion of RNA, DNA lysis and aggregation, and cell fragmentation and cell loss. The apoptotic process leads to typical ultrastructural progressive changes of membranous disruption and swelling, progressively deepening nuclear invaginations with eventual membranous bleb formations and cell death and fragmentation into apoptotic bodies. Histologically, typical apoptotic changes with positive immunohistochemical staining of markers for apoptosis are found throughout the injected areas for up to several weeks after treatment.

[4] = test system: Patients with BPH and who optionally also had LUTS; assay: Clinical trial: nocturia score (IPSS question 7) mean change from baseline; type: in vivo, human; conditions: for improvement in nocturia score mean change from baseline: FT twice over at least one year; for Nocturia Score Mean Change From Baseline: intraprostatic, IPSS question 7, (SD)
Description: Improvements in obstructive and irritative symptoms can be measured in accordance with techniques known in the art. For example, uroflowmeters are known to differentiate urine weight change to provide a continuous plot of the flow rate vs. time that is smoothed by internal electronic filtering to permit precise (±5%) measurement of Qmax. Schafer W, et al. “Good urodynamic practices: Uroflowmetry, filling cystometry and pressure-flow studies,” Neurourol Urodynamics, Vol. 21, pp. 261-74 (2002). Nocturia can be measured in a variety of manners, most of which involve patients completing a questionnaire before and after treatment to establish a baseline, and then determine the difference (improvement, lack of improvement, worsening, etc.) from baseline after treatment. Exemplary questionnaires include evaluating the scores from the nocturia question included in the International Prostate Symptom Score (IPSS), assessing the number of nocturnal voids (Boyarsky symptom score), the Madsen-Iversen Symptom Score, and the ICSmale questionnaire. See, e.g., Chartier-Kastler, et al., “The Measurement of Nocturia and its Impact on Quality of Sleep and Quality of Life in LUTS/BPH,” Eur. Urol. Supp., Vol. 5, pp. 3-11 (2006). A preferred method of measuring nocturia is by determining the mean change from baseline of the nocturia question in the IPSS (question 7). Question 7 solicits from the patient how many times over the past month they had to get up to urinate from the time they went to bed until the time they got up—the score ranging from none (score 0) to 5 or more times (score 5).
as §1
Patients with BPH and who optionally also had LUTS were given an intraprostatic injection of either a) FT2.5 in 10 mL phosphate buffered saline pH 7.2 (“PBS”) or b) FT 5.0 mg in PBS or c) FT 2.5 mg in PBS 2-dosages given >1 year apart, or d) PBS 10 mL alone, under double-blind conditions by a urologist in an office setting under ultrasound guidance. Patients were followed for >=3 months to several years with regular physical examinations, laboratory tests, and evaluations of symptoms. The mean difference from baseline nocturia scores to follow-up scores (nocturia scores are the values provided to question #7 in the IPSS) were calculated in FT treated subjects given single dose FT 2.5 mg, single dose FT 0.5 mg, 2-dose 2.5 mg>1 year apart, and Placebo treated controls.

[5] = compared to a single administration of four times the amount
[6] = compared to a single administration of twice the amount
[7] = Two Doses of 2.5 mg FT > 1 year apart

Fexapotide Triflutate (IDQQVLSRIKLEIKRCL; also: trifluoroacetate salt) [FT]
inhibition of the progression of urinary flow worsening ([1]; 2 single dosages of 2.5 mg separated by >1 year, vs one-time 5.0 mg or 10.0 mg dose): significantly better inhibition | improvement in percentage of patients with Qmax failures [1, 5]: about 83.3% | improvement in percentage of patients with Qmax failures [1, 6]: about 81.4% | improvement in percentage of patients with Qmax failures ([1]; compared to the control): about 77% | % of Patients With Inability to Provide Urine Volume >125 mL ([1]; Single Dose of 5.0 mg FT, 90 days after last treatment): 21%* (90 days) | % of Patients With Inability to Provide Urine Volume >125 mL ([1]; Single Dose of 10.0 mg FT, 90 days after last treatment): 23.3%** (90 days) | % of Patients With Inability to Provide Urine Volume >125 mL ([1]; Two Doses of 2.5 mg FT > 1 year apart, 180 days after last treatment): 3.9% (180 days) | inhibition of the progression of urinary flow worsening ([1]; double (two 2.5 mg doses) or 4X (four 2.5 mg doses) single dose, vs single dose 2.5 mg): did not have significantly better response than single dose 2.5 mg | inhibition of the progression of urinary flow worsening ([1]; single dose of FT 2.5 mg, after 3 months, vs control groups): not significantly better than control groups | improvement in peak flow rate mean change from baseline [2, 5]: about 47% | improvement in peak flow rate mean change from baseline [2, 6]: about 102% | improvement in peak flow rate mean change from baseline ([2]; compared to the control): about 111% | Mean Change of Qmax from baseline ([2]; Single Dose of 5.0 mg FT): 1.28 mL/s | Mean Change of Qmax from baseline ([2]; Single Dose of 10.0 mg FT): 1.76 mL/s | Mean Change of Qmax from baseline [2, 7]: 2.59 mL/s | effect on caspase, tumor necrosis factor and BCL pathways [3]: stimulates caspase pathways | improvement in nocturia score mean change from baseline ([4]; compared to a single administration of the same individual amount): about 37% | improvement in nocturia score mean change from baseline ([4]; compared to a single administration of twice the individual amount): about 19.4% | improvement in nocturia score mean change from baseline ([4]; compared to the control): about 48% | Nocturia Score Mean Change From Baseline ([4]; Single Dose of 5.0 mg FT): −0.54 (SD 1.1)* | Nocturia Score Mean Change From Baseline ([4]; Single Dose of 10.0 mg FT): −0.62 (SD 1.64)* | Nocturia Score Mean Change From Baseline [4, 7]: −0.74 (SD 1.26)**, ***
